Assay results published in patent publication US12037344B2, “NLRP3 modulators” (INNATE TUMOR IMMUNITY, INC., priority 2018, dated 2024).
pEC50: −log10 of the molar value. Read-outs that look alike come from different tables or passages of the source.

Tests used:
[1] = system: THP-1 cells; test: Measurement of IL-1β production, hTRF protocol (second alternative procedure), THP-1 cells; type: cell-based, human
Summary of the method: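 THP-1 cells differentiated overnight with 50 ng/ml PMA, then plated at 50,000 cells/well in RPMI with 2% FBS onto serial compound dilutions (top final concentration 10 μM) for 2 hours at 37° C. Supernatant IL-1β measured by hTRF (antibodies at 1:40, overnight at 4° C), read at 665/615 nm against a standard curve.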

[2] = target: T1, TLR7 (Homo sapiens, UniProt Q9NYK1); test: In vitro human TLR7 binding reporter assay (HEK-Blue, NF-kB/AP1-inducible SEAP); type: cell-based; conditions: read-out: TLR7 Agonist EC50
T1 construct: human HEK-Blue cells co-expressing a TLR7 or TLR8 gene
T1 sequence (Q9NYK1 27-1049): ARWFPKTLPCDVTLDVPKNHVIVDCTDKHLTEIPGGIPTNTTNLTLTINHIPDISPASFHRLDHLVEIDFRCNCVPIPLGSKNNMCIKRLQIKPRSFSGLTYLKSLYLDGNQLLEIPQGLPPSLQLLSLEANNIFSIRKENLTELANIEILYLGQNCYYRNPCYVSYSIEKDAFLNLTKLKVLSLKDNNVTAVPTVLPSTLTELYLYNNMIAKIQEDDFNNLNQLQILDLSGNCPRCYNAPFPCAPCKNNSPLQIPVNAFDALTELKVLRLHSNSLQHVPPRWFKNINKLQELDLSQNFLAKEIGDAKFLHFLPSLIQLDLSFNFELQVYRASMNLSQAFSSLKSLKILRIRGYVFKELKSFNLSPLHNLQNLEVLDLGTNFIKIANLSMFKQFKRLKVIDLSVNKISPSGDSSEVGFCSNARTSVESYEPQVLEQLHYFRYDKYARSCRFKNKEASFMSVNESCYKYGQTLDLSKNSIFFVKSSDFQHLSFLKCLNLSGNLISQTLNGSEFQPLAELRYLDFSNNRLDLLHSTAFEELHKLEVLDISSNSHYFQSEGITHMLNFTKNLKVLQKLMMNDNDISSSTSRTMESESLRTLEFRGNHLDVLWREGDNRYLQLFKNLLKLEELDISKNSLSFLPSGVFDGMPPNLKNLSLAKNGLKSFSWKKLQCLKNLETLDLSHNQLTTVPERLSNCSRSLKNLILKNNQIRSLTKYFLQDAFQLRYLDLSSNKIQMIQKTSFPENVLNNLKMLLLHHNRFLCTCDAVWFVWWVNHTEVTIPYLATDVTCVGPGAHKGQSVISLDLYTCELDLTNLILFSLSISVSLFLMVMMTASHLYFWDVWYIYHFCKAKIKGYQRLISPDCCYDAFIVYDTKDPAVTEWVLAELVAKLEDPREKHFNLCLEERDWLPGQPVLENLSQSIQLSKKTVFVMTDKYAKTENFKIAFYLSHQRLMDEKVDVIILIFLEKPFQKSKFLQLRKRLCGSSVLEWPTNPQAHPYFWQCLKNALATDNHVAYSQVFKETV
Summary of the method: (§1)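 Cells are seeded and grown for 24 h. Compounds or DMSO are then added and incubated 18 h at 37 °C. Quanti-Blue is added, and SEAP is read after thirty minutes. EC50 values are normalized, with RLU from 50 μM reference standard setting 100% Ymax.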

[3] = target: T2, TLR8 (Homo sapiens, UniProt Q9NR97); test: In vitro human TLR8 binding reporter assay (HEK-Blue, NF-kB/AP1-inducible SEAP); type: cell-based; conditions: read-out: TLR8 Agonist EC50
T2 construct: human HEK-Blue cells co-expressing a TLR7 or TLR8 gene
T2 sequence (Q9NR97 27-1041): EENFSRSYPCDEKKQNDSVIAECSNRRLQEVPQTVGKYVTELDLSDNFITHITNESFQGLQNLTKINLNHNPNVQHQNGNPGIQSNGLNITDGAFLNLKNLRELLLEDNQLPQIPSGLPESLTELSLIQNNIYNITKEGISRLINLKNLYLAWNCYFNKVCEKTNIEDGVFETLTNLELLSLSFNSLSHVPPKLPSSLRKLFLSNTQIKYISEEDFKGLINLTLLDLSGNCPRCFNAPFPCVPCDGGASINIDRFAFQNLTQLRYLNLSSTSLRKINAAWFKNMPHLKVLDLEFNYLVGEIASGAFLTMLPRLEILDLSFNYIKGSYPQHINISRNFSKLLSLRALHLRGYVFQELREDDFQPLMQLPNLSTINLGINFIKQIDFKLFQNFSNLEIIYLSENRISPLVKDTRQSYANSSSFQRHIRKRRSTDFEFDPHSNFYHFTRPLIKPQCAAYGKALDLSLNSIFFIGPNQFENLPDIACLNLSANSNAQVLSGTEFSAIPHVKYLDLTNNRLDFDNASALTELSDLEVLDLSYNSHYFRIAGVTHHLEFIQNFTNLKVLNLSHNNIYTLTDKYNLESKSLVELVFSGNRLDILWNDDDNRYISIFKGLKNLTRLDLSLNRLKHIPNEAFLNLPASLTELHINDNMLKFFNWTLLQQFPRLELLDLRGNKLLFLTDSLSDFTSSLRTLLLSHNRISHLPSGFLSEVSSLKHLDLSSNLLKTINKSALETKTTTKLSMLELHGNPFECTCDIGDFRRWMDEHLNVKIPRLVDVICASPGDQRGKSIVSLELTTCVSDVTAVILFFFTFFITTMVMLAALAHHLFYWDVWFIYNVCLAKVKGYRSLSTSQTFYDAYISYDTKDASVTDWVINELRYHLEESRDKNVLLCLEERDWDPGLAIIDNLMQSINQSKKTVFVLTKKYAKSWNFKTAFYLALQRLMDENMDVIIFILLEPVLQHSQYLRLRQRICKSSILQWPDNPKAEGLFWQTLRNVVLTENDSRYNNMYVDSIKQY
Summary of the method: as §1

[4] = Homo sapiens, THP-1, IL-1β production, human cells, read-out: NLRP3 hILIB EC50
[5] = Homo sapiens, THP-1, IL-1β production, human, read-out: NLRP3 hILIB EC50

SMILES	pEC50 [1, 4]	pEC50 ([2]; activity range)	pEC50 ([3]; activity range)	pEC50 [1, 5]	pEC50 ([2]; activity range class)	pEC50 ([3]; activity range class)	pEC50 ([1]; Homo sapiens, THP-1, read-out: NLRP3 hILIB EC50)	pEC50 ([1]; IL-1β production, human, read-out: NLRP3 hILIB EC50)
COCCn1cc2c(N)nc3cc(-c4cc[nH]n4)c(F)cc3c2n1 [Example 406]	6.35	< 4.00	< 4.00	–	–	–	–	–
Nc1nc2cc(-c3cc[nH]n3)ccc2c2cn(CCc3c[nH]cn3)nc12 [Example 175]	–	–	–	6.54	< 4.00	< 4.00	–	–
CN(C)C(=O)Cn1cc2c(N)nc3cc(-n4cccn4)ccc3c2n1 [Example 553]	5.68	< 4.00	< 4.00	–	–	–	–	–
Nc1nc2cc(-c3cc[nH]n3)ccc2c2cn(CCNC(=O)c3cccnn3)nc12 [Example 73]	–	–	–	5.53	< 4.00	< 4.00	–	–
Nc1nc2cc(-c3ccn[nH]3)ccc2c2nn(CCNC3CCC3)cc12 [Example 280]	–	–	–	5.76	< 4.00	< 4.00	–	–
Nc1nc2cc(-c3cc[nH]n3)ccc2c2nn(Cc3cscn3)cc12 [Example 362]	–	–	–	7.15	< 4.00	< 4.00	–	–
CC(C)(Cn1cc2c(N)nc3cc(-c4ccn[nH]4)ccc3c2n1)C(=O)NC1CCC1 [Example 598]	5.70	< 4.00	< 4.00	–	–	–	–	–
Nc1nc2cc(-c3cc[nH]n3)ccc2c2nn(Cc3ccnc(CO)c3)cc12 [Example 409]	5.83	< 4.00	< 4.00	–	–	–	–	–
CC(C(=O)N1CC(F)(F)C1)n1cc2c(N)nc3cc(-c4ccn[nH]4)ccc3c2n1 (stereo not drawn) [Example 577]	5.63	< 4.00	< 4.00	–	–	–	–	–
Nc1nc2cc(-c3cc[nH]n3)ccc2c2[nH]c(CNC(=O)C3CCCO3)cc12 (stereo not drawn) [Example 412]	5.73	< 4.00	< 4.00	–	–	–	–	–
CC(C)(F)C(=O)NCCn1cc2c(N)nc3cc(-c4cc[nH]n4)ccc3c2n1 [Example 203]	–	–	–	5.46	< 4.00	< 4.00	–	–
Nc1nc2cc(-c3cc[nH]n3)ccc2c2cn(CCNC(=O)c3ccncn3)nc12 [Example 75]	–	–	–	6.19	< 4.00	< 4.00	–	–
CN(CCn1cc2c(n1)c(N)nc1cc(-c3cc[nH]n3)ccc12)C(=O)c1ccccc1 [Example 120, N-{2-[4-amino-7-(1H-pyrazol-3-yl)-2H-pyrazolo[3,4-c]quinolin-2-yl]ethyl}-N-methylbenzamide]	–	–	–	–	< 4.00	4.00 to 4.70	5.73	–
Nc1nc2cc(-c3cc[nH]n3)ccc2c2nn(CCOC(F)F)cc12 [Example 349]	–	–	–	6.46	< 4.00	< 4.00	–	–
CN1CCN(C(=O)Cn2cc3c(n2)c(N)nc2cc(-c4cc[nH]n4)ccc23)CC1 [Example 552]	5.00	< 4.00	< 4.00	–	–	–	–	–
Nc1nc2cc(-c3cc[nH]n3)ccc2c2nn(CCNC(=O)c3ccccc3)cc12 [Example 200]	–	–	–	6.24	< 4.00	< 4.00	–	–
CCCCn1cc2c(N)nc3cc(-c4cc[nH]n4)ccc3c2n1 [Example 305]	–	–	–	6.54	< 4.00	< 4.00	–	–
CC(C)(CO)NC(=O)Cn1cc2c(n1)c(N)nc1cc(-c3cc[nH]n3)ccc12 [Example 537]	5.56	< 4.00	< 4.00	–	–	–	–	–
Nc1nc2cc(-n3cccn3)ccc2c2cn(Cc3ccccn3)nc12 [Example 14]	–	–	–	5.77	4.00 to 4.70	4.00 to 4.70	–	–
CC(C)NC(=O)CC(C)n1cc2c(N)nc3cc(-c4cc[nH]n4)ccc3c2n1 (stereo not drawn) [Example 615]	4.98	< 4.00	< 4.00	–	–	–	–	–
Nc1nc2cc(-c3cc[nH]n3)ccc2c2cn(CCNC(=O)c3cocn3)nc12 [Example 44]	–	–	–	6.20	< 4.00	< 4.00	–	–
Nc1nc2cc(-c3ccn[nH]3)ccc2c2cn(CC(F)F)nc12 [Example 192]	–	–	–	7.05	< 4.00	< 4.00	–	–
Nc1nc2cc(-c3cc[nH]n3)ccc2c2cn(CCNC(=O)c3ncccc3Cl)nc12 [Example 92]	–	–	–	5.97	< 4.00	< 4.00	–	–
Nc1nc2cc(-c3ccn[nH]3)ccc2c2[nH]c(CCCO)cc12 [Example 440]	6.89	< 4.00	< 4.00	–	–	–	–	–
Nc1nc2cc(-c3ccn[nH]3)ccc2c2nn(CCNS(=O)(=O)N3CCOCC3)cc12 [Example 593]	4.55	< 4.00	< 4.00	–	–	–	–	–
COCCCCn1cc2c(N)nc3cc(-c4cc[nH]n4)ccc3c2n1 [Example 218]	–	–	–	6.70	< 4.00	< 4.00	–	–
CC(=O)NC(C)Cn1cc2c(N)nc3cc(-c4ccn[nH]4)ccc3c2n1 (single isomer, unassigned) [Example 300]	–	–	–	–	< 4.00	< 4.00	–	5.13
CCN(Cc1[nH]c2c(c(N)nc3cc(-c4cc[nH]n4)ccc32)c1C)C(C)=O [Example 470]	4.81	< 4.00	< 4.00	–	–	–	–	–
